From patent US11261201B2 (priority 2018, dated 2022)
Values after ≈ are worked out from the molar mass of the structure shown. Where a name gives a salt, the structure may show the parent alone. Read-outs that look alike come from different tables or passages of the source.

Key:
[1] = system: H37RvMA; assay: Tuberculosis Alamar Blue/Resazurin assay (MIC); assay type: cell-based; details: Mycobacterium tuberculosis, H37RV, read-out: WT H37Rv MTB Activity
[2] = system: A. baumannii; assay: Gram negative MIC protocol (OD600, LB, 24 h); details: Acinetobacter baumannii
Protocol: (§1) Overnight bacterial cultures were grown in LB with no added antibiotics at 37° C. with shaking. A 1:1000 dilution of these cultures into LB was exposed to concentration gradients of compounds in 96-well plates (100 μL per well assay volume). Resulting plates were incubated at 37° C. for 24 h without shaking, and OD600 was measured at the end of the incubation. MICs were determined as the lowest concentrations at which OD600 remained at baseline.

[3] = system: E. coli; assay: Gram negative MIC protocol (OD600, LB, 24 h); details: Escherichia coli
Protocol: as §1

[4] = read-out: MIC A. baumannii LB Media, A. baumannii, LB media, 24 h, OD600
[5] = read-out: MIC E. coli delta-TolC LB Media, E. coli delta-TolC strain, LB media, 24 h, OD600
[6] = read-out: MIC WT E. coli LB Media, wild-type E. coli, LB media, 24 h, OD600

SMILES | MIC ([1]; WT H37Rv MTB) [µM] | MIC [2, 4] [µM] | MIC [3, 5] [µM] | MIC [3, 6] [µM] | MIC [1] [µM] | MIC ([2]; read-out: MIC A. baumannii LB Media) [µM]
CNC(=O)COc1ccccc1CNC(C)CC1CCCCC1 (stereo not drawn) [B243] | > 150 | > 150 | 12 (≈ 3.82 µg/mL) | > 150 | – | –
CC(CC1CCCCC1)NCc1ccccc1OCc1cn2ccccc2n1 (stereo not drawn) [B244] | 150 (≈ 56.6 µg/mL) | 150 (≈ 56.6 µg/mL) | 3 (≈ 1.13 µg/mL) | 91 (≈ 34.4 µg/mL) | – | –
Cc1nonc1COc1ccccc1CNC(C)CC1CCCCC1 (stereo not drawn) [B245] | 150 (≈ 51.5 µg/mL) | 150 (≈ 51.5 µg/mL) | 4 (≈ 1.37 µg/mL) | 150 (≈ 51.5 µg/mL) | – | –
Cc1nc(COc2ccccc2CNC(C)CC2CCCCC2)oc1C (stereo not drawn) [B246] | 91 (≈ 32.4 µg/mL) | > 150 | 12 (≈ 4.28 µg/mL) | > 150 | – | –
CC(CC1CCCCC1)NCc1ccccc1OCCCn1c(=O)[nH]c2ccccc21 (stereo not drawn) [B247] | > 150 | 91 (≈ 38.4 µg/mL) | 2 (≈ 0.843 µg/mL) | 150 (≈ 63.2 µg/mL) | – | –
CC(CC1CCCCC1)NCc1ccccc1OCc1ncnn1C (stereo not drawn) [B248] | > 150 | > 150 | 20 (≈ 6.85 µg/mL) | > 150 | – | –
CCN(CC)CCOc1ccccc1CNC(C)CC1CCCCC1 (stereo not drawn) [B249] | > 150 | > 150 | > 150 | > 150 | – | –
CC(CC1CCCCC1)NCc1ccccc1OCCN1CCOCC1 (stereo not drawn) [B250] | > 150 | > 150 | 12 (≈ 4.33 µg/mL) | > 150 | – | –
CC(CC1CCCCC1)NCc1ccccc1OCCCO (stereo not drawn) [B251] | > 150 | 91 (≈ 27.8 µg/mL) | 7 (≈ 2.14 µg/mL) | 91 (≈ 27.8 µg/mL) | – | –
COC(=O)c1ccc(COc2ccccc2CNC(C)CC2CCCCC2)o1 (stereo not drawn) [B252] | 150 (≈ 57.8 µg/mL) | 150 (≈ 57.8 µg/mL) | 4 (≈ 1.54 µg/mL) | > 150 | – | –
COc1ccccc1CNCCC1CCCCC1 [B253, 2-cyclohexyl-N-(2-methoxybenzyl)ethanamine hydrochloride] | > 150 | > 150 | 37 | 150 | – | –
NCc1ccccc1CNCCC1CCCCC1 [B254, N-(2-(aminomethyl)benzyl)-2-cyclohexylethanamine hydrochloride] | > 150 | > 150 | > 150 | > 150 | – | –
OCc1ccccc1CNCCC1CCCCC1 [B255] | > 150 | > 150 | 84 (≈ 20.8 µg/mL) | > 150 | – | –
CC(=O)Oc1ccccc1CNCCC1CCCCC1 [B256, 2-((2-cyclohexylethylamino)methyl)phenyl acetate] | > 150 | > 150 | 150 | > 150 | – | –
O=C(O)c1ccccc1CNCCC1CCCCC1 [B257, 2-((2-cyclohexylethylamino)methyl)benzoic acid hydrochloride] | > 150 | > 150 | 67 | > 150 | – | –
COC(=O)c1ccccc1CNCCC1CCCCC1 [B258, methyl 2-((2-cyclohexylethylamino)methyl)benzoate hydrochloride] | > 150 | > 150 | 100 | > 150 | – | –
NC(=O)c1ccccc1CNCCC1CCCCC1 [B259, 2-((2-cyclohexylethylamino)methyl)benzamide trifluoroacetate] | – | – | 125 | > 150 | > 150 | > 150
CC(CC1CCCCC1)NCc1ccccc1OCCOC1CCCC1 (stereo not drawn) [B260] | 91 (≈ 32.7 µg/mL) | > 150 | 7 (≈ 2.52 µg/mL) | > 150 | – | –
CC(CC1CCCCC1)NCc1ccccc1OCCOCC1CC1 (stereo not drawn) [B261] | 150 (≈ 51.8 µg/mL) | > 150 | 4 (≈ 1.38 µg/mL) | > 150 | – | –

SMILES | MIC ([1]; WT H37Rv MTB) [µM] | MIC [2, 4] [µM] | MIC [3, 5] [µM] | MIC [3, 6] [µM] | MIC [1] [µM] | MIC ([2]; read-out: MIC A. baumannii LB Media) [µM]
CC(CC1CCCCC1)NCc1ccccc1OCCOCC(F)(F)C(F)(F)F (stereo not drawn) [B262] | 55 (≈ 23.3 µg/mL) | 91 (≈ 38.5 µg/mL) | 12 (≈ 5.08 µg/mL) | 150 (≈ 63.5 µg/mL) | – | –
CC(CC1CCCCC1)NCc1ccccc1OCC(=O)N(C)C1CCCCC1 (stereo not drawn) [B263] | 91 (≈ 36.5 µg/mL) | > 150 | 3 (≈ 1.2 µg/mL) | > 150 | – | –
CC(CC1CCCCC1)NCc1ccccc1OCCCN1CCOC1=O (stereo not drawn) [B264] | > 150 | 150 (≈ 56.2 µg/mL) | 3 (≈ 1.12 µg/mL) | 150 (≈ 56.2 µg/mL) | – | –
COC(=O)c1occc1COc1ccccc1CNC(C)CC1CCCCC1 (stereo not drawn) [B265] | 91 (≈ 35.1 µg/mL) | 91 (≈ 35.1 µg/mL) | 3 (≈ 1.16 µg/mL) | 150 (≈ 57.8 µg/mL) | – | –
COc1cccc(OCCOc2ccccc2CNC(C)CC2CCCCC2)c1 (stereo not drawn) [B266] | 55 (≈ 21.9 µg/mL) | 33 (≈ 13.1 µg/mL) | 2 (≈ 0.795 µg/mL) | 150 (≈ 59.6 µg/mL) | – | –
COC(=O)c1ccoc1COc1ccccc1CNC(C)CC1CCCCC1 (stereo not drawn) [B267] | 91 (≈ 35.1 µg/mL) | > 150 | 7 (≈ 2.7 µg/mL) | > 150 | – | –
CCc1cnc(COc2ccccc2CNC(C)CC2CCCCC2)o1 (stereo not drawn) [B268] | 91 (≈ 32.4 µg/mL) | > 150 | 7 (≈ 2.5 µg/mL) | > 150 | – | –
CC(CC1CCCCC1)NCc1ccccc1OCC1(CO)COC1 (stereo not drawn) [B269] | > 150 | 55 (≈ 19.1 µg/mL) | 7 (≈ 2.43 µg/mL) | > 150 | – | –
CC(CC1CCCCC1)NCc1ccccc1OCC(=O)NC(C)C(=O)N(C)C (stereo not drawn) [B270] | > 150 | > 150 | 20 (≈ 8.07 µg/mL) | > 150 | – | –
COc1ccc(OCCCOc2ccccc2CNC(C)CC2CCCCC2)cc1 (stereo not drawn) [B271] | 55 (≈ 22.6 µg/mL) | 55 (≈ 22.6 µg/mL) | 3 (≈ 1.23 µg/mL) | 150 (≈ 61.7 µg/mL) | – | –
COC(=O)c1cc(COc2ccccc2CNC(C)CC2CCCCC2)oc1C (stereo not drawn) [B272] | 150 (≈ 59.9 µg/mL) | > 150 | 12 (≈ 4.79 µg/mL) | > 150 | – | –
CC1CCCN(C(=O)COc2ccccc2CNC(C)CC2CCCCC2)C1 (stereo not drawn) [B273] | 150 (≈ 58 µg/mL) | > 150 | 4 (≈ 1.55 µg/mL) | > 150 | – | –
CC(CC1CCCCC1)NCc1ccccc1OCCOCCO (stereo not drawn) [B274] | > 150 | 150 (≈ 50.3 µg/mL) | 7 (≈ 2.35 µg/mL) | 150 (≈ 50.3 µg/mL) | – | –
CC(CC1CCCCC1)NCc1ccccc1OCCC(C)(C)O (stereo not drawn) [B275] | > 150 | 91 (≈ 30.3 µg/mL) | 4 (≈ 1.33 µg/mL) | 150 (≈ 50 µg/mL) | – | –
COC(=O)CCCOc1ccccc1CNC(C)CC1CCCCC1 (stereo not drawn) [B276] | > 150 | > 150 | 4 (≈ 1.39 µg/mL) | > 150 | – | –
COCCCCOc1ccccc1CNC(C)CC1CCCCC1 (stereo not drawn) [B277] | > 150 | > 150 | 4 (≈ 1.33 µg/mL) | > 150 | – | –
Cc1noc(COc2ccccc2CNC(C)CC2CCCCC2)n1 (stereo not drawn) [B278] | > 150 | > 150 | 12 (≈ 4.12 µg/mL) | > 150 | – | –
Cc1nnc(COc2ccccc2CNC(C)CC2CCCCC2)o1 (stereo not drawn) [B279] | > 150 | > 150 | 12 (≈ 4.12 µg/mL) | > 150 | – | –
CC(CC1CCCCC1)NCc1ccccc1OCC(=O)NC1CC1 (stereo not drawn) [B280] | > 150 | 150 (≈ 51.7 µg/mL) | 12 (≈ 4.13 µg/mL) | 150 (≈ 51.7 µg/mL) | – | –

SMILES | MIC ([1]; WT H37Rv MTB) [µM] | MIC [2, 4] [µM] | MIC [3, 5] [µM] | MIC [3, 6] [µM] | MIC [1] [µM] | MIC ([2]; read-out: MIC A. baumannii LB Media) [µM]
CC(CC1CCCCC1)NCc1ccccc1OCC1CCOCC1 (stereo not drawn) [B281] | 91 (≈ 31.4 µg/mL) | 91 (≈ 31.4 µg/mL) | 4 (≈ 1.38 µg/mL) | > 150 | – | –
Cc1cc(COc2ccccc2CNC(C)CC2CCCCC2)no1 (stereo not drawn) [B282] | 150 (≈ 51.4 µg/mL) | > 150 | 3 (≈ 1.03 µg/mL) | > 150 | – | –
CC(CC1CCCCC1)NCc1ccccc1OCc1ccncc1 (stereo not drawn) [B283] | 150 (≈ 50.8 µg/mL) | 91 (≈ 30.8 µg/mL) | 7 (≈ 2.37 µg/mL) | 91 (≈ 30.8 µg/mL) | – | –
CC(CC1CCCCC1)NCc1ccccc1OCC(=O)NCC1CC1 (stereo not drawn) [B284] | > 150 | > 150 | 7 (≈ 2.51 µg/mL) | > 150 | – | –
CC(CC1CCCCC1)NCc1ccccc1OCCC(N)=O (stereo not drawn) [B285] | > 150 | > 150 | 55 (≈ 17.5 µg/mL) | 91 (≈ 29 µg/mL) | – | –
CC(CC1CCCCC1)NCc1ccccc1OCc1ccccc1F (stereo not drawn) [B286] | 33 (≈ 11.7 µg/mL) | 91 (≈ 32.4 µg/mL) | 3 (≈ 1.07 µg/mL) | 91 (≈ 32.4 µg/mL) | – | –
CC(CC1CCCCC1)NCc1ccccc1OCC1CC1 (stereo not drawn) [B287] | 150 (≈ 45.2 µg/mL) | 91 (≈ 27.4 µg/mL) | 3 (≈ 0.904 µg/mL) | 150 (≈ 45.2 µg/mL) | – | –
CC(CC1CCCCC1)NCc1ccccc1OC1CCCC1 (stereo not drawn) [B288] | 91 (≈ 28.7 µg/mL) | 150 (≈ 47.3 µg/mL) | 3 (≈ 0.947 µg/mL) | > 150 | – | –
C=CCOc1ccccc1CNC(C)CC1CCCCC1 (stereo not drawn) [B289] | 150 (≈ 43.1 µg/mL) | 150 (≈ 43.1 µg/mL) | 3 (≈ 0.862 µg/mL) | 91 (≈ 26.2 µg/mL) | – | –
CC(CC1CCCCC1)NCc1ccccc1OCC(=O)N1CCCC1 (stereo not drawn) [B290] | > 150 | > 150 | 33 (≈ 11.8 µg/mL) | > 150 | – | –
CC(CC1CCCCC1)NCc1ccccc1OC(F)F (stereo not drawn) [B291] | > 150 | > 150 | 12 (≈ 3.57 µg/mL) | 91 (≈ 27.1 µg/mL) | – | –
CC(CC1CCCCC1)NCc1ccccc1OCc1cscn1 (stereo not drawn) [B292] | 150 (≈ 51.7 µg/mL) | > 150 | 4 (≈ 1.38 µg/mL) | > 150 | – | –
CCOc1ccccc1CNC(C)CC1CCCCC1 (stereo not drawn) [B293] | > 150 | > 150 | 4 (≈ 1.1 µg/mL) | 150 (≈ 41.3 µg/mL) | – | –
COCCOc1ccccc1CNC(C)CC1CCCCC1 (stereo not drawn) [B294] | > 150 | > 150 | 7 (≈ 2.14 µg/mL) | > 150 | – | –
CC(CC1CCCCC1)NCc1ccccc1OCc1ccccn1 (stereo not drawn) [B295] | 150 (≈ 50.8 µg/mL) | > 150 | 4 (≈ 1.35 µg/mL) | > 150 | – | –
CC(CC1CCCCC1)NCc1ccccc1OCc1cccnc1 (stereo not drawn) [B296] | > 150 | > 150 | 7 (≈ 2.37 µg/mL) | 91 (≈ 30.8 µg/mL) | – | –
CC(CC1CCCCC1)NCc1ccccc1OCC1CCCO1 (stereo not drawn) [B297] | > 150 | 150 (≈ 49.7 µg/mL) | 7 (≈ 2.32 µg/mL) | > 150 | – | –
CCOC(COc1ccccc1CNC(C)CC1CCCCC1)OCC (stereo not drawn) [B298] | > 150 | > 150 | 12 (≈ 4.36 µg/mL) | > 150 | – | –
CC(CC1CCCCC1)NCc1ccccc1OCCCS(C)(=O)=O (stereo not drawn) [B299] | > 150 | 150 (≈ 55.1 µg/mL) | 4 (≈ 1.47 µg/mL) | 150 (≈ 55.1 µg/mL) | – | –
